In the NIST ThermoML archive (doi:10.1021/je700260f):

Conditions: 323.15 K, Liquid, Vibrating tube method

FC(C(F)(F)F)C(F)(F)F [1,1,1,2,3,3,3-heptafluoropropane]
Conditions | mass density [kg/m3]
15907 kPa | 1399.8
15931 kPa | 1400
15952 kPa | 1399.9
15979 kPa | 1400.1
15995 kPa | 1400.2
16018 kPa | 1400.3
16047 kPa | 1400.5
16072 kPa | 1400.6
16209 kPa | 1401.3
16238 kPa | 1401.5
16257 kPa | 1401.7
16276 kPa | 1401.7
16300 kPa | 1401.9
16318 kPa | 1402
16339 kPa | 1402.1
16364 kPa | 1402.3
16385 kPa | 1402.4
16407 kPa | 1402.6
16429 kPa | 1402.6
16451 kPa | 1402.8
16474 kPa | 1402.8
16502 kPa | 1403
16520 kPa | 1403.2
16544 kPa | 1403.3
16566 kPa | 1403.2
16584 kPa | 1403.6
16603 kPa | 1403.7
16629 kPa | 1403.6
16649 kPa | 1403.9
16677 kPa | 1404.1
16763 kPa | 1404.5
16808 kPa | 1404.8
16827 kPa | 1404.9
16854 kPa | 1405.1
16872 kPa | 1405
16898 kPa | 1405.2
16920 kPa | 1405.3
16947 kPa | 1405.5
16978 kPa | 1405.6
16998 kPa | 1405.8
17027 kPa | 1406
17050 kPa | 1406
17073 kPa | 1406.2
17097 kPa | 1406.2
17120 kPa | 1406.4
17141 kPa | 1406.4
17170 kPa | 1406.7
17197 kPa | 1406.8
17220 kPa | 1406.9
17330 kPa | 1407.5
17378 kPa | 1407.6
17898 kPa | 1410.5
17952 kPa | 1410.9
17976 kPa | 1411.1
17998 kPa | 1411.2
18024 kPa | 1411.4
18049 kPa | 1411.4
18081 kPa | 1411.6
18105 kPa | 1411.8
18129 kPa | 1411.7
18160 kPa | 1412
18184 kPa | 1412.1
18240 kPa | 1412.4
18317 kPa | 1412.9
18547 kPa | 1414
18567 kPa | 1414.1
18596 kPa | 1414.3
18614 kPa | 1414.3
18862 kPa | 1415.5
18885 kPa | 1415.8
18905 kPa | 1415.8
18929 kPa | 1416
18952 kPa | 1416.1
18981 kPa | 1416.2
19007 kPa | 1416.4
19162 kPa | 1417
19197 kPa | 1417.4
20153 kPa | 1422
20175 kPa | 1422.2
20203 kPa | 1422.2
20225 kPa | 1422.4
20251 kPa | 1422.6
20283 kPa | 1422.7
20313 kPa | 1422.8
20340 kPa | 1422.8
20370 kPa | 1423.2
20404 kPa | 1423.3
20429 kPa | 1423.4
20481 kPa | 1423.6
21768 kPa | 1429.8
21806 kPa | 1430
21829 kPa | 1430.1
21855 kPa | 1430
21886 kPa | 1430.3
21913 kPa | 1430.5
21936 kPa | 1430.6
21971 kPa | 1430.7
22991 kPa | 1435.4
23635 kPa | 1438.4
23664 kPa | 1438.4
23690 kPa | 1438.6
23714 kPa | 1438.6
23750 kPa | 1438.7
